Test results: ChEMBL document CHEMBL5352480, “Discovery of potent 1,1-diarylthiogalactoside glycomimetic inhibitors of Pseudomonas aeruginosa LecA with antibiofilm properties” (Eur J Med Chem, 2023)

How the values were obtained:
[1] = molecular target: T1, PA-I galactophilic lectin (Pseudomonas aeruginosa (strain ATCC 15692 / PAO1 / 1C / PRS 101 / LMG12228)) (UniProt Q05097); experiment: Binding affinity to Pseudomonas aeruginosa LecA expressed in Escherichia coli BL21 (DE3) cells assessed as change in enthalpy by isothermal titration calorimetry
T1 sequence (whole entry): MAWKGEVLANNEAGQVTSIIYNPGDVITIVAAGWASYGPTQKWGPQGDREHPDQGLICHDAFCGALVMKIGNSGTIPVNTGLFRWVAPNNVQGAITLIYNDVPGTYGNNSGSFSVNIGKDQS

[2] = molecular target: T1, PA-I galactophilic lectin (Pseudomonas aeruginosa (strain ATCC 15692 / PAO1 / 1C / PRS 101 / LMG12228)); experiment: Binding affinity to Pseudomonas aeruginosa LecA expressed in Escherichia coli BL21 (DE3) cells assessed as gibbs free energy change by isothermal titration calorimetry
[3] = molecular target: T2, PA-I galactophilic lectin (Pseudomonas aeruginosa (strain ATCC 15692 / PAO1 / 1C / PRS 101 / LMG12228), UniProt Q05097); experiment: Binding affinity to Pseudomonas aeruginosa LecA expressed in Escherichia coli BL21 (DE3) cells assessed as dissociation constant by isothermal titration calorimetry
T2 sequence (Q05097 whole entry): T1 sequence (whole entry)

[4] = molecular target: T1, PA-I galactophilic lectin (Pseudomonas aeruginosa (strain ATCC 15692 / PAO1 / 1C / PRS 101 / LMG12228)); experiment: Binding affinity to Pseudomonas aeruginosa LecA expressed in Escherichia coli BL21 (DE3) cells assessed as change in entropy by isothermal titration calorimetry
[5] = molecular target: T2, PA-I galactophilic lectin; experiment: Binding affinity to Pseudomonas aeruginosa LecA assessed as dissociation constant by isothermal titration calorimetry
[6] = molecular target: T2, PA-I galactophilic lectin; experiment: Binding affinity to Pseudomonas aeruginosa LecA
[7] = tested on: Pseudomonas aeruginosa; experiment: Antibiofilm activity against Pseudomonas aeruginosa PA01 (CIP 104116) assessed as log reduction of biofilm formation at 5 mM measured after 2 to 24 hrs; assay type: functional; settings: time 2-24 hrs
[8] = tested on: Pseudomonas aeruginosa; experiment: Antibiofilm activity against Pseudomonas aeruginosa PA01 (CIP 104116) assessed as inhibition of biofilm formation at 5 mM measured after 2 to 24 hrs relative to control; assay type: functional; design: scale not given: the % may be the effect or the level left; settings: time 2-24 hrs
[9] = tested on: MRC5; experiment: Cytotoxicity against human MRC5 cells assessed as reduction in cell viability at 1.25 mM measured after 24 hrs by MTT assay; assay type: toxicity, cell-based; settings: mrc5, 24 h, 1250 µM
[10] = tested on: MRC5; experiment: Cytotoxicity against human MRC5 cells assessed as cell viability at 5 mM measured after 24 hrs by MTT assay; settings: mrc5, 24 h, 5000 µM
[11] = tested on: MRC5; experiment: Cytotoxicity against human MRC5 cells assessed as cell viability at 2.5 mM measured after 24 hrs by MTT assay; settings: mrc5, 24 h, 2500 µM
[12] = tested on: Pseudomonas aeruginosa; experiment: Antibacterial activity against Pseudomonas aeruginosa PAO1; assay type: functional
[13] = tested on: MRC5; experiment: Cytotoxicity against human MRC5 cells assessed as reduction in cell viability at upto 1.25 mM measured after 24 hrs by MTT assay; assay type: toxicity, cell-based; settings: mrc5, 24 h, 1250 µM
[14] = tested on: Pseudomonas aeruginosa; experiment: Bactericidal activity against Pseudomonas aeruginosa PAO1; assay type: functional
[15] = tested on: Pseudomonas aeruginosa; experiment: Antibiofilm activity against Pseudomonas aeruginosa PA01 (CIP 104116) assessed as inhibition of biofilm formation measured after 2 to 24 hrs; assay type: functional, organism-based; settings: dose 0.08-5 mM, time 2-24 hrs
[16] = tested on: Pseudomonas aeruginosa; experiment: Antibiofilm activity against Pseudomonas aeruginosa PA01 (CIP 104116) assessed as inhibition of biofilm formation at 0.08 to 5 mM measured after 2 to 24 hrs relative to control; assay type: functional; design: scale not given: the % may be the effect or the level left; settings: dose 0.08-5 mM, time 2-24 hrs

Row | SMILES | deltaH [1] [kJ/mol] | deltaG [2] [kJ/mol] | Kd [3] [µM] | TdeltaS [4] [kJ/mol] | also measured
1 | COc1ccc(S[C@@H]2O[C@H](CO)[C@H](O)[C@H](O)[C@H]2O)cc1 | -42.3 | -28.1 | 11.9 | -14.2 | –
2 | C=C(c1ccc(S[C@@H]2O[C@H](CO)[C@H](O)[C@H](O)[C@H]2O)cc1)c1ccc2ccccc2c1 | -35.2 | -28.8 | 9 | -6.4 | –
3 | OC[C@H]1O[C@@H](OCc2cn([C@@H]3[C@H](O)[C@@H](O)[C@H](c4cn([C@H]5[C@H](O)[C@@H](O)[C@H](n6cc([C@@H]7O[C@H](CO)[C@@H](n8cc(CO[C@@H]9O[C@H](CO)[C@H](O)[C@H](O)[C@H]9O)nn8)[C@H](O)[C@H]7O)nn6)O[C@@H]5CO)nn4)O[C@@H]3CO)nn2)[C@H](O)[C@@H](O)[C@H]1O | – | – | – | – | Kd [5]: 0.028 µM
4 | CC(C)S[C@@H]1O[C@H](CO)[C@H](O)[C@H](O)[C@H]1O | – | – | – | – | Kd [5]: 32.4 µM
5 | C=C(c1cc(OC)c(OC)c(OC)c1)c1ccc(OC)c(S[C@@H]2O[C@H](CO)[C@H](O)[C@H](O)[C@H]2OC(C)=O)c1 | -36 | -29.4 | 6.9 | -6.6 | –
6 | CC(C)(C)c1cc2c(OCc3cn(CCOCCOCCO[C@@H]4O[C@H](CO)[C@H](O)[C@H](O)[C@H]4O)nn3)c(c1)Cc1cc(C(C)(C)C)cc(c1OCc1cn(CCOCCOCCO[C@@H]3O[C@H](CO)[C@H](O)[C@H](O)[C@H]3O)nn1)Cc1cc(C(C)(C)C)cc(c1OCc1cn(CCOCCOCCO[C@@H]3O[C@H](CO)[C@H](O)[C@H](O)[C@H]3O)nn1)Cc1cc(C(C)(C)C)cc(c1OCc1cn(CCOCCOCCO[C@@H]3O[C@H](CO)[C@H](O)[C@H](O)[C@H]3O)nn1)C2 | – | – | – | – | Kd [6]: 0.176 µM
7 | C=C(c1ccc(S[C@@H]2O[C@H](CO)[C@H](O)[C@H](O)[C@H]2O)cc1)c1cccc(S[C@H]2O[C@@H](CO)[C@@H](O)[C@@H](O)[C@@H]2O)c1 (single isomer, unassigned) | -90.2 | -38.7 | 0.16 | -51.5 | log(activity) [7]: 1; Activity [8]: 90%; viability [9]: 91.4%; viability [10]: 5.2%; viability [11]: 65.1%; MIC [12]: > 5 mM; Activity [13]: Non-Toxic; MBC [14]: > 5 mM
8 | COc1ccc(C(=O)c2cc(OC)c(OC)c(OC)c2)cc1S[C@@H]1O[C@H](CO)[C@H](O)[C@H](O)[C@H]1O | -54.5 | -34.2 | 1.02 | -20.3 | viability [9]: 61.5%; viability [10]: 7.1%; Activity [15]: Dose-Dependent Effect; viability [11]: 41.1%; MIC [12]: > 5 mM; Activity [13]: Non-Toxic; Activity [16]: 100%; MBC [14]: > 5 mM
9 | CC(C)c1ccc(S[C@@H]2O[C@H](CO)[C@H](O)[C@H](O)[C@H]2O)cc1 | -49.9 | -32 | 2.45 | -17.9 | –
10 | C=C(c1ccc(OC)cc1)c1cccc(S[C@@H]2O[C@H](CO)[C@H](O)[C@H](O)[C@H]2O)c1 | -46.4 | -29.1 | 8.1 | -17.3 | –
11 | C=C(c1ccc(OC)cc1)c1ccc(S[C@@H]2O[C@H](CO)[C@H](O)[C@H](O)[C@H]2O)cc1 | -46.6 | -31.6 | 3 | -15 | –
12 | Cc1cc(=O)oc2cc(S[C@@H]3O[C@H](CO)[C@H](O)[C@H](O)[C@H]3O)ccc12 | – | – | – | – | Kd [5]: 5.4 µM
13 | O=Cc1ccc(S[C@@H]2O[C@H](CO)[C@H](O)[C@H](O)[C@H]2O)cc1 | -41.2 | -28.7 | 9.2 | -12.5 | –
